Measured values taken from patent publication US10597388B2, “Pyridazinone herbicides” (FMC CORPORATION, priority 2014, dated 2020).

Experiments:
Type in all cases: in vivo
[1] = test system: waterhemp_RES2 (ALS & HPPD resistant common waterhemp, Amaranthus rudis); assay: Test E greenhouse herbicide test, postemergence
Outline: (§1)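 Values are visual ratings from 0 (no effect) to 100 (complete control), scored relative to untreated controls 14 to 21 d after treatment. Plants were 1- to 4-leaf seedlings (2 to 18 cm) in potting medium and received postemergence applications of formulated test chemicals.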

[2] = test system: waterhemp_RES1 (ALS & Triazine resistant common waterhemp, Amaranthus rudis); assay: Test E greenhouse herbicide test, postemergence
Outline: as §1

[3] = test system: crabgrass, large (large crabgrass, Digitaria sanguinalis); assay: Test E greenhouse herbicide test, pre- and postemergence; settings: Preemergence
Source text: (§2) Seeds of plant species selected from corn (Zea mays), soybean (Glycine max), velvetleaf (Abutilon theophrasti), lambsquarters (Chenopodium album), wild poinsettia (Euphorbia heterophylla), pigweed, palmer (palmer pigweed, Amaranthus palmeri), waterhemp (common waterhemp, Amaranthus rudis), surinam grass (Brachiaria decumbens), crabgrass, large (large crabgrass, Digitaria sanguinalis), crabgrass, Brazilian (Brazilian crabgrass, Digitaria horizontalis), panicum, fall (fall panicum, Panicum dichotomiflorum), foxtail, giant (giant foxtail, Setaria faberii), foxtail, green (green foxtail, Setaria viridis), goosegrass (Eleusine indica), johnsongrass (Sorghum halepense), ragweed (common ragweed, Ambrosia elatior), barnyardgrass (Echinochloa crus-galli), sandbur (southem sandbur, Cenchrus echinatus), arrowleaf sida (Sida rhombifolia), Italian ryegrass (Lolium multiflorum), dayflower (Virginia (VA) dayflower, Commelina virginica), field bindweed (Convolvulus arvensis), momingglory (Ipomoea coccinea), nightshade (eastern black nightshade, Solanum ptycanthum), kochia (Kochia scoparia), nutsedge, yellow (yellow nutsedge, Cyperus esculentus), horseweed (Conyza canadensis), and beggarticks (hairy beggarticks, Bidens pilosa), were planted into a silt loam soil and treated preemergence with test chemicals formulated in a non-phytotoxic solvent mixture which included a surfactant.
(§3) At the same time, plants from these crop and weed species and also waterhemp_RES1, (ALS & Triazine resistant common waterhemp, Amaranthus rudis), and waterhemp_RES2, (ALS & HPPD resistant common waterhemp, Amaranthus rudis) were planted in pots containing Redi-Earth® planting medium (Scotts Company, 14111 Scottslawn Road, Marysville, Ohio 43041) comprising spaghnum peat moss, vermiculite, wetting agent and starter nutrients were treated with postemergence applications of test chemicals formulated in the same manner. Plants ranged in height from 2 to 18 cm for postemergence treatments (1- to 4-leaf stage). Treated plants and controls were maintained in a greenhouse for 14 to 21 d, after which time all species were compared to controls and visually evaluated. Plant response ratings, summarized in Table E, are based on a scale of 0 to 100 where 0 is no effect and 100 is complete control. A dash (-) response means no test result.

[4] = test system: ragweed (common ragweed, Ambrosia elatior); assay: as above
Source text: as §2, §3

[5] = test system: Italian ryegrass (Lolium multiflorum); assay: as above
Source text: as §2, §3

[6] = test system: crabgrass, Brazilian (Brazilian crabgrass, Digitaria horizontalis); assay: as above
Source text: as §2, §3

[7] = test system: beggarticks (hairy beggarticks, Bidens pilosa); assay: as above
Source text: as §2, §3

soybean (Glycine max) = assay: as above
Source text: as §2, §3

[8] = test system: goosegrass (Eleusine indica); assay: as above; settings: Preemergence
Source text: as §2, §3

[9] = test system: barnyardgrass (Echinochloa crus-galli); assay: as above
Source text: as §2, §3

[10] = test system: sandbur (southem sandbur, Cenchrus echinatus); assay: as above
Source text: as §2, §3

kochia (Kochia scoparia) = assay: as above
Source text: as §2, §3

[11] = test system: pigweed, palmer (palmer pigweed, Amaranthus palmeri); assay: as above
Source text: as §2, §3

[12] = test system: dayflower (Virginia (VA) dayflower, Commelina virginica); assay: as above
Source text: as §2, §3

[13] = test system: horseweed (Conyza canadensis); assay: as above
Source text: as §2, §3

[14] = 31 g ai/ha, visual, scale 0 no effect to 100 complete control
[15] = 62 g ai/ha, scale 0 to 100 (0 no effect, 100 complete control)
[16] = 125 g ai/ha, scale 0 to 100 (0 no effect, 100 complete control)
[17] = 250 g ai/ha, scale 0 to 100 (0 no effect, 100 complete control)
[18] = 31 g ai/ha, scale 0 to 100, 0 no effect, 100 complete control
[19] = 125 g ai/ha, visual, scale 0 no effect to 100 complete control
[20] = 250 g ai/ha, visual, scale 0 no effect to 100 complete control
[21] = 62 g ai/ha, Postemergence, scale 0 to 100 (0 no effect, 100 complete control)
[22] = 62 g ai/ha, Preemergence, scale 0 to 100 (0 no effect, 100 complete control)
[23] = 125 g ai/ha, Postemergence, scale 0 to 100 (0 no effect, 100 complete control)
[24] = 125 g ai/ha, Preemergence, scale 0 to 100 (0 no effect, 100 complete control)
[25] = 250 g ai/ha, Postemergence, scale 0 to 100 (0 no effect, 100 complete control)
[26] = Postemergence, 31 g ai/ha, visual, scale 0 no effect to 100 complete control
[27] = Preemergence, 31 g ai/ha, scale 0 to 100, 0 no effect, 100 complete control
[28] = Preemergence, 250 g ai/ha, visual, scale 0 no effect to 100 complete control
[29] = Preemergence, 125 g ai/ha, visual, scale 0 no effect to 100 complete control

`Cn1nc(Br)c(O)c(-c2cccc3ccccc23)c1=O` [Compound 20] was tested, and the “Plant response rating, Waterhemp_RES2” value [1, 14] was 50, the “Plant response rating, Waterhemp_RES2” value [1, 15] was 50 and the “Plant response rating, Waterhemp_RES2” value [1, 16] was 50. For the same compound, the “Plant response rating, Waterhemp_RES2” value [1, 17] was 60, the “Plant response rating, Waterhemp_RES1” value [2, 14] was 60 and the “Plant response rating, Waterhemp_RES1” value [2, 15] was 70. For the same compound, the “Plant response rating, Waterhemp_RES1” value [2, 16] was 80, the “Plant response rating, Waterhemp_RES1” value [2, 17] was 80 and the “Plant response rating, Crabgrass, Large” value [3, 15] was 35. For the same compound, the “Plant response rating, Crabgrass, Large” value [3, 18] was 30, the “Plant response rating, Crabgrass, Large” value [3, 19] was 35 and the “Plant response rating, Crabgrass, Large” value [3, 20] was 30. The “Plant response rating, Ragweed” value [4, 21] was 75, the “Plant response rating, Ragweed” value [4, 22] was 65 and the “Plant response rating, Ragweed” value [4, 23] was 85. The “Plant response rating, Ragweed” value [4, 24] was 70, the “Plant response rating, Ragweed” value [4, 25] was 80 and the “Plant response rating, Ragweed” value [4, 26] was 65. The “Plant response rating, Ragweed” value [4, 27] was 30, the “Plant response rating, Ragweed” value [4, 28] was 98 and the “Plant response rating, Ryegrass, Italian” value [5, 21] was 50. For the same compound, the “Plant response rating, Ryegrass, Italian” value [5, 22] was 95, the “Plant response rating, Ryegrass, Italian” value [5, 23] was 70 and the “Plant response rating, Ryegrass, Italian” value [5, 24] was 98. For the same compound, the “Plant response rating, Ryegrass, Italian” value [5, 25] was 80, the “Plant response rating, Ryegrass, Italian” value [5, 26] was 40 and the “Plant response rating, Ryegrass, Italian” value [5, 27] was 90. For the same compound, the “Plant response rating, Ryegrass, Italian” value [5, 28] was 100, the “Plant response rating, Crabgrass, Brazil” value [6, 21] was 20 and the “Plant response rating, Crabgrass, Brazil” value [6, 22] was 60. For the same compound, the “Plant response rating, Crabgrass, Brazil” value [6, 23] was 20, the “Plant response rating, Crabgrass, Brazil” value [6, 25] was 50 and the “Plant response rating, Crabgrass, Brazil” value [6, 26] was 10. For the same compound, the “Plant response rating, Crabgrass, Brazil” value [6, 27] was 40, the “Plant response rating, Crabgrass, Brazil” value [6, 29] was 70 and the “Plant response rating, Crabgrass, Brazil” value [6, 28] was 90. For the same compound, the “Plant response rating, Beggarticks” value [7, 21] was 95, the “Plant response rating, Beggarticks” value [7, 22] was 85 and the “Plant response rating, Beggarticks” value [7, 23] was 98. For the same compound, the “Plant response rating, Beggarticks” value [7, 25] was 100, the “Plant response rating, Beggarticks” value [7, 26] was 85 and the “Plant response rating, Beggarticks” value [7, 27] was 20. The “Plant response rating, Beggarticks” value [7, 29] was 95, the “Plant response rating, Beggarticks” value [7, 28] was 98 and the “Plant response rating, Soybean” value (soybean (Glycine max); [21]) was 20. For the same compound, the “Plant response rating, Soybean” value (soybean (Glycine max); [22]) was 0, the “Plant response rating, Soybean” value (soybean (Glycine max); [23]) was 40 and the “Plant response rating, Soybean” value (soybean (Glycine max); [24]) was 20. The “Plant response rating, Soybean” value (soybean (Glycine max); [25]) was 30, the “Plant response rating, Soybean” value (soybean (Glycine max); [26]) was 20 and the “Plant response rating, Soybean” value (soybean (Glycine max); [27]) was 0. The “Plant response rating, Goosegrass” value [8, 15] was 10, the “Plant response rating, Goosegrass” value [8, 18] was 20 and the “Plant response rating, Goosegrass” value [8, 19] was 50. For the same compound, the “Plant response rating, Goosegrass” value [8, 20] was 85, the “Plant response rating, Barnyardgrass” value [9, 21] was 50 and the “Plant response rating, Barnyardgrass” value [9, 22] was 0. The “Plant response rating, Barnyardgrass” value [9, 23] was 60, the “Plant response rating, Barnyardgrass” value [9, 25] was 80 and the “Plant response rating, Barnyardgrass” value [9, 26] was 30. The “Plant response rating, Barnyardgrass” value [9, 27] was 0, the “Plant response rating, Barnyardgrass” value [9, 29] was 10 and the “Plant response rating, Barnyardgrass” value [9, 28] was 30. The “Plant response rating, Sandbur” value [10, 21] was 20, the “Plant response rating, Sandbur” value [10, 22] was 0 and the “Plant response rating, Sandbur” value [10, 23] was 30. The “Plant response rating, Sandbur” value [10, 24] was 65, the “Plant response rating, Sandbur” value [10, 25] was 40 and the “Plant response rating, Sandbur” value [10, 26] was 15. For the same compound, the “Plant response rating, Sandbur” value [10, 27] was 0, the “Plant response rating, Sandbur” value [10, 28] was 75 and the “Plant response rating, Kochia” value (kochia (Kochia scoparia); [21]) was 65. The “Plant response rating, Kochia” value (kochia (Kochia scoparia); [22]) was 90, the “Plant response rating, Kochia” value (kochia (Kochia scoparia); [23]) was 75 and the “Plant response rating, Kochia” value (kochia (Kochia scoparia); [25]) was 90. For the same compound, the “Plant response rating, Kochia” value (kochia (Kochia scoparia); [26]) was 60, the “Plant response rating, Kochia” value (kochia (Kochia scoparia); [27]) was 0 and the “Plant response rating, Kochia” value (kochia (Kochia scoparia); [29]) was 98. For the same compound, the “Plant response rating, Kochia” value (kochia (Kochia scoparia); [28]) was 100, the “Plant response rating, Pigweed, Palmer” value [11, 21] was 35 and the “Plant response rating, Pigweed, Palmer” value [11, 22] was 0. The “Plant response rating, Pigweed, Palmer” value [11, 23] was 55, the “Plant response rating, Pigweed, Palmer” value [11, 24] was 5 and the “Plant response rating, Pigweed, Palmer” value [11, 25] was 70. For the same compound, the “Plant response rating, Pigweed, Palmer” value [11, 26] was 40, the “Plant response rating, Pigweed, Palmer” value [11, 27] was 0 and the “Plant response rating, Pigweed, Palmer” value [11, 28] was 70. For the same compound, the “Plant response rating, Dayflower, VA” value [12, 21] was 10, the “Plant response rating, Dayflower, VA” value [12, 22] was 0 and the “Plant response rating, Dayflower, VA” value [12, 23] was 50. The “Plant response rating, Dayflower, VA” value [12, 25] was 50, the “Plant response rating, Dayflower, VA” value [12, 26] was 0 and the “Plant response rating, Dayflower, VA” value [12, 27] was 0. The “Plant response rating, Dayflower, VA” value [12, 29] was 0, the “Plant response rating, Dayflower, VA” value [12, 28] was 0 and the “Plant response rating, Horseweed” value [13, 21] was 80. The “Plant response rating, Horseweed” value [13, 22] was 100, the “Plant response rating, Horseweed” value [13, 23] was 70 and the “Plant response rating, Horseweed” value [13, 25] was 85. For the same compound, the “Plant response rating, Horseweed” value [13, 26] was 70, the “Plant response rating, Horseweed” value [13, 27] was 100 and the “Plant response rating, Horseweed” value [13, 29] was 100. The “Plant response rating, Horseweed” value [13, 28] was 100.
